Results from ChEMBL document CHEMBL1149706, “Discovering benzamide derivatives as glycogen phosphorylase inhibitors and their binding site at the enzyme” (Bioorg Med Chem, 2007).

Assay: Inhibition of rabbit muscle GPa
Parameters: species or system Oryctolagus cuniculus

| Compound | IC50 [µM] |
| --- | --- |
| O=C(Nc1ccccn1)c1cccc(C(=O)Nc2ccccn2)n1 | 425 |
| Cn1ccnc1Sc1cc(C(=O)Nc2ccc(C#N)cc2)c(N)cc1F | 96.1 |
| O=C(CN1CCN(c2ccccc2F)CC1)Nc1cccc(C(F)(F)F)c1 | 78.5 |
| Cn1ccnc1Sc1cc(C(=O)NCc2ccccc2)c(N)cc1F | 153 |
| Cn1ccnc1Sc1cc(C(=O)Nc2ccccc2N)c(N)cc1F | 95.3 |
| Cn1ccnc1Sc1cc(C(=O)Nc2cccc(C#N)c2)c(N)cc1F | 9.87 |
| O=C(CN1CCN(c2ccccc2F)CC1)Nc1nccs1 | 35.8 |
| Cc1ccc(NC(=O)c2cc(Sc3nccn3C)c(F)cc2N)cc1 | 70.1 |
| Cn1ccnc1Sc1cc(C(=O)Nc2ccccc2C#N)c(N)cc1F | 75.9 |

More lines, now with the values ahead:

| IC50 [µM] | Compound |
| --- | --- |
| 269 | O=C(Nc1nncs1)c1ccc(C(=O)Nc2nncs2)cc1 |
| 166 | COc1cccc(NC(=O)c2cc(Sc3nccn3C)c(F)cc2N)c1 |
| 57.6 | O=C(Nc1ccccn1)c1cccc(C(=O)Nc2ccccn2)c1 |
| 215 | Cn1ccnc1Sc1cc(C(=O)Nc2ccccc2)c(N)cc1F |
| 30.9 | Cn1ccnc1Sc1cc(C(=O)Nc2cccc(F)c2)c(N)cc1F |
| 8.95 | Cn1ccnc1Sc1cc(C(=O)Nc2cccc(C(F)(F)F)c2)c(N)cc1F |
| 41.8 | COc1ccccc1NC(=O)c1cc(Sc2nccn2C)c(F)cc1N |
| 337 | O=C(Nc1nccs1)c1ccc(C(=O)Nc2nccs2)cc1 |
| 46.1 | COc1ccccc1N1CCN(CC(=O)Nc2cccc(C(F)(F)F)c2)CC1 |
| 96.9 | O=C(CN1CCN(c2ccccc2)CC1)Nc1nccs1 |
| 107 | COc1ccc(NC(=O)c2cc(Sc3nccn3C)c(F)cc2N)cc1 |
| 2.68 | Cn1ccnc1Sc1cc(C(=O)Nc2cccc(N)c2)c(N)cc1F |
| 91.1 | Cn1ccnc1Sc1cc(C(=O)Nc2ccc(N)cc2)c(N)cc1F |
